Source: US20220402874A1, “SOLID FORMS OF OMECAMTIV MECARBIL DIHYDROCHLORIDE AND PROCESSES THEREOF” (DR. REDDY'S LABORATORIES LIMITED, priority 2019, published 2022)
Structures can show the parent of a compound that is named as a salt. Each block holds one molecule with its values, some of them ahead of it.

Experiments:
[1] = storage stability of the solid form in a closed container (PXRD); assay type: physicochemical
Method: Further, the premix of amorphous solid dispersion with Soluplus is also unstable as depicted in FIG. 8.
In another aspect, the present application provides a crystalline Form OMT-D of Omecamtiv mecarbil dihydrochloride, characterized by a PXRD pattern comprising the peaks at about 12.98, 15.79, 18.55 and 25.63°±0.2° 2θ. In embodiments, the crystalline Form OMT-D of Omecamtiv mecarbil dihydrochloride is characterized by an additional peak at about 20.41°±0.2° 2θ. In embodiments, the application provides crystalline Form OMT-D of Omecamtiv mecarbil dihydrochloride, characterized by a PXRD pattern of FIG. 14. In embodiments, crystalline Form OMT-D of Omecamtiv mecarbil dihydrochloride is a solvate with dimethyl sulfoxide. In embodiments, crystalline Form OMT-D is monosolvate with dimethyl sulfoxide. In embodiments, crystalline Form OMT-D is stable for atleast 45 days stored in a closed container. In embodiments, the crystalline Form OMT-D is characterized by a thermogram of FIG. 16.

[2] = described in the '270 application; cited from earlier work

- stability of amorphous state (result in words) ([1]; as depicted by PXRD in FIG. 5 / FIG. 8): unstable
Compound: COC(=O)N1CCN(Cc2cccc(NC(=O)Nc3ccc(C)nc3)c2F)CC1 [Omecamtiv mecarbil dihydrochloride]

- stable for at least (time stored) ([1]; stored in a closed container): ≥ 45 days
Compound: COC(=O)N1CCN(Cc2cccc(NC(=O)Nc3ccc(C)nc3)c2F)CC1 [Form OMT-D, Omecamtiv mecarbil dihydrochloride]

Compound: COC(=O)N1CCN(Cc2cccc(NC(=O)Nc3ccc(C)nc3)c2F)CC1 [anhydrous form B, Omecamtiv mecarbil dihydrochloride]
- stability of crystalline form (result in words) [2]: metastable
